We go through 53 compounds from patent publication US11952346B2, “Modulators of mas-related G-protein receptor X2 and related products and methods” (Escient Pharmaceuticals, Inc., priority 2020, dated 2024).

In the assay the target is T1, human MRGPRX2 (Homo sapiens, UniProt Q96LB1).
T1 construct: expressed in transfected cells
T1 sequence (Q96LB1 1-330): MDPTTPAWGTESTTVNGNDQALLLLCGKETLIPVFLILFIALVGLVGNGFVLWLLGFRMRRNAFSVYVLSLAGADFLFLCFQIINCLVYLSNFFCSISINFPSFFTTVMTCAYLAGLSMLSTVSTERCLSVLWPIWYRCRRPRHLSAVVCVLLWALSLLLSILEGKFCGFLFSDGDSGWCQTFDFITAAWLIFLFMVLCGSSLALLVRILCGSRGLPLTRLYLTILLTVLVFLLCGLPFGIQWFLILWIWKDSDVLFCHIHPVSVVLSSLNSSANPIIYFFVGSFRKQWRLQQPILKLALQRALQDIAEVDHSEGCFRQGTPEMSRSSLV
The experiment in a line: MRGPRX2 antagonist activity, IP-One HTRF assay in CHO cells expressing human MRGPRX2 versus Cortistatin-14. The format is cell-based. As to conditions: CHO cells stably expressing human MRGPRX2; versus 0.3 uM Cortistatin-14 agonist; IP-1 HTRF readout; read-out: MRGPR2 Antagonist Activity. Here is the method: CHO cells stably transfected to express human MRGPRX2 were maintained in an incubator at 37° C. with 5% CO2 and grown in F12 (HAM) media with 10% fetal bovine serum (FBS), 1% Glutamax, 1% penicillin/streptomycin, 800 μg/mL Geneticin (G418), and 300 μg/mL Hygromycin B. Cells were plated in a 384-well assay plate at 20,000 cells per well in 12 μL of Opti-MEM and kept in an incubator overnight. On the day of the assay, compounds solubilized at 10 mM in DMSO were added as a 10-point curve (30 uM final top concentration with 1:3 serial dilutions) using a Tecan D300E digital dispenser. Agonists were diluted in assay buffer (final concentrations of 5.7 mM Tris-HCl, 43 mM NaCl, 50 mM LiCI, pH=8) and 2 μL of the agonist Cortistatin-14 (CPC Scientific, catalog CORT-002) are added to each well. Final concentrations of agonists were […] Cortistatin-14. Final concentrations of DMSO were kept consistent across the plate. Plates were incubated in the dark for 1 hr at 37° C. and then for 1 hr at room temperature. IP-1 standards and HTRF detection reagents were added according to the IP-One—Gq Kit purchased from Cisbio (part number 621PAPEJ) and incubated in the dark for 1 hr at room temperature. The plate was read on a Molecular Devices SpectraMax iD5 plate reader. The HTRF ratio was calculated from the raw data and graphed using GraphPad Prism to calculate an IC50 value for each compound.
The activity ranges are denoted as follows: “+++++” denotes antagonist activity <100 nM; “++++” denotes antagonist activity between 100 and 500 nM; “+++” denotes activity between 501 and 1000 nM; “++” denotes activity between 1001 and 2500 nM; and “+” denotes activity >2500 nM.
(In general: Time-resolved FRET reads energy transfer from a long-lived donor to a nearby acceptor.)
For `O=C(N[C@H]1CC[C@@H](Nc2cc(C(F)(F)F)nc(C(F)(F)F)c2)CC1)c1ccc(-n2ccnc2)cc1` [4-25], the IC50 is 100 to 500 nM.

In the case of `CN1CCCc2cccc(C(=O)N[C@H]3CC[C@@H](Nc4cc(C(F)(F)F)nc(C(F)(F)F)c4)CC3)c21` [4-26], the IC50 was 1000 to 2500 nM.

For the compound `Nc1nc(C(=O)N[C@H]2CC[C@@H](Nc3cc(C(F)(F)F)nc(C(F)(F)F)c3)CC2)cs1` [4-27], the IC50 is 100 to 500 nM.

As for `O=C(N[C@H]1CC[C@@H](Nc2cc(C(F)(F)F)nc(C(F)(F)F)c2)CC1)c1cccc(O)c1` [4-28], the IC50 was in the range of 100 to 500 nM.

Take `CN(C)C(=O)N[C@H]1CC[C@@H](Nc2cc(C(F)(F)F)nc(C(F)(F)F)c2)CC1` [4-29]: the IC50 is 1000 to 2500 nM.

For `O=C(N[C@H]1CC[C@@H](Nc2cc(C(F)(F)F)nc(C(F)(F)F)c2)CC1)c1ccc(-n2cnnn2)cc1` [4-30], the IC50 is 100 to 500 nM.

In the case of `O=C(N[C@H]1CC[C@@H](Nc2cc(C(F)(F)F)nc(C(F)(F)F)c2)CC1)c1ccc(-n2cccn2)cc1` [4-31], the IC50 is 100 to 500 nM.

Take `O=C(N[C@H]1CC[C@@H](Nc2cc(C(F)(F)F)nc(C(F)(F)F)c2)CC1)c1ccc(Cl)cc1Cl` [4-32]: the IC50 fell in the range of 501 to 1000 nM.

As to `CC1=NN(c2ccc(C(=O)N[C@H]3CC[C@@H](Nc4cc(C(F)(F)F)nc(C(F)(F)F)c4)CC3)cc2)C(=O)C1` [4-33], the IC50 fell in the range of 100 to 500 nM.

For the compound `CN1CCc2c(cccc2C(=O)N[C@H]2CC[C@@H](Nc3cc(C(F)(F)F)nc(C(F)(F)F)c3)CC2)C1` [4-34], the IC50 lay within 1000 to 2500 nM.

In the case of `O=C(N[C@H]1CC[C@@H](Nc2cc(C(F)(F)F)nc(C(F)(F)F)c2)CC1)c1nc2ccccc2[nH]1` [4-35], the IC50 was in the range of 1000 to 2500 nM.

For the compound `CN1CCN(C(=O)N[C@H]2CC[C@@H](Nc3cc(C(F)(F)F)nc(C(F)(F)F)c3)CC2)CC1` [4-36], the IC50 is 1000 to 2500 nM.

For the compound `O=C(N[C@H]1CC[C@@H](Nc2cc(C(F)(F)F)nc(C(F)(F)F)c2)CC1)c1cc2c([nH]1)CCCC2` [4-37], the IC50 is 501 to 1000 nM.

As to `O=C(N[C@H]1CC[C@@H](Nc2cc(C(F)(F)F)nc(C(F)(F)F)c2)CC1)c1ccc(N2CCS(=O)(=O)CC2)cc1` [4-38], the IC50 was in the range of 100 to 500 nM.

On to `O=C(N[C@H]1CC[C@@H](Nc2cc(C(F)(F)F)nc(C(F)(F)F)c2)CC1)c1ccc2nccn2c1` [4-39], for which the IC50 is 100 to 500 nM.

As for `CN1CCC(C(=O)N[C@H]2CC[C@@H](Nc3cc(C(F)(F)F)nc(C(F)(F)F)c3)CC2)C1` (some centres unmarked) [4-40], the IC50 fell in the range of 1000 to 2500 nM.

Take `O=C(N[C@H]1CC[C@@H](Nc2cc(C(F)(F)F)nc(C(F)(F)F)c2)CC1)c1ccc(N2CCCC2)cc1` [4-41]: the IC50 was in the range of 100 to 500 nM.

For the compound `O=C(N[C@H]1CC[C@@H](Nc2cc(C(F)(F)F)nc(C(F)(F)F)c2)CC1)c1ccc2c(c1)CCCC2` [4-42], the IC50 lay within 501 to 1000 nM.

`COc1ccc(C(=O)N[C@H]2CC[C@@H](Nc3cc(C(F)F)nc(C(F)(F)F)c3)CC2)cc1` [4-43]: the IC50 was 100 to 500 nM.

Regarding `N#Cc1ccc(N[C@H]2CC[C@@H](NC(=O)c3cn[nH]c3C(F)(F)F)CC2)cc1C(F)(F)F` [4-44], the IC50 was less than 100 nM.

`N#Cc1ccc(N[C@H]2CC[C@@H](NC(=O)c3cn[nH]c3Cl)CC2)cc1C(F)(F)F` [4-45]: the IC50 is less than 100 nM.

`N#Cc1ccc(N[C@H]2CC[C@@H](NC(=O)c3cn[nH]c3C3CC3)CC2)cc1C(F)(F)F` [4-46]: the IC50 is less than 100 nM.

Consider `CNc1ccc(C(=O)N[C@H]2CC[C@@H](Nc3ccc(C#N)c(C(F)(F)F)c3)CC2)cc1` [4-47], for which the IC50 was less than 100 nM.

With `CC(=O)Nc1ccc(C(=O)N[C@H]2CC[C@@H](Nc3ccc(C#N)c(C(F)(F)F)c3)CC2)cc1` [4-48], the IC50 is less than 100 nM.

As to `N#Cc1ccc(N[C@H]2CC[C@@H](NC(=O)c3ccc4cn[nH]c4c3)CC2)cc1C(F)(F)F` [4-49], the IC50 is less than 100 nM.

As for `N#Cc1ccc(N[C@H]2CC[C@@H](NC(=O)c3ccc4[nH]ncc4c3)CC2)cc1C(F)(F)F` [4-50], the IC50 is less than 100 nM.

Regarding `Cc1cn(-c2ccc(C(=O)N[C@H]3CC[C@@H](Nc4ccc(C#N)c(C(F)(F)F)c4)CC3)cc2)cn1` [4-51], the IC50 was less than 100 nM.

With `N#Cc1ccc(N[C@H]2CC[C@@H](NC(=O)c3ccc(NCC(F)F)cc3)CC2)cc1C(F)(F)F` [4-53], the IC50 was less than 100 nM.

In the case of `CN(CC(F)F)c1ccc(C(=O)N[C@H]2CC[C@@H](Nc3ccc(C#N)c(C(F)(F)F)c3)CC2)cc1` [4-54], the IC50 is less than 100 nM.

Regarding `N#Cc1ccc(N[C@H]2CC[C@@H](NC(=O)c3cn[nH]c3C#N)CC2)cc1C(F)(F)F` [4-56], the IC50 was less than 100 nM.

For the compound `N#Cc1ccc(N[C@H]2CC[C@@H](NC(=O)c3c[nH]c4ncccc34)CC2)cc1C(F)(F)F` [4-57], the IC50 was less than 100 nM.

As to `N#Cc1ccc(N[C@H]2CC[C@@H](NC(=O)c3ccnc4cn[nH]c34)CC2)cc1C(F)(F)F` [4-58], the IC50 is less than 100 nM.

Take `N#Cc1ccc(N[C@H]2CC[C@@H](NC(=O)c3ccnc4[nH]ncc34)CC2)cc1C(F)(F)F` [4-59]: the IC50 is less than 100 nM.

For `Cc1cc2c(C(=O)N[C@H]3CC[C@@H](Nc4ccc(C#N)c(C(F)(F)F)c4)CC3)ccnc2[nH]1` [4-60], the IC50 was less than 100 nM.

For `Cn1ccc2c(C(=O)N[C@H]3CC[C@@H](Nc4ccc(C#N)c(C(F)(F)F)c4)CC3)ccnc21` [4-61], the IC50 is less than 100 nM.

Consider `Cc1cccc2[nH]cc(C(=O)N[C@H]3CC[C@@H](Nc4ccc(C#N)c(C(F)(F)F)c4)CC3)c12` [4-62], for which the IC50 is less than 100 nM.

Consider `N#Cc1ccc(N[C@H]2CC[C@@H](NC(=O)c3c[nH]c4ccncc34)CC2)cc1C(F)(F)F` [4-63], for which the IC50 was less than 100 nM.

Consider `N#Cc1ccc(N[C@H]2CC[C@@H](NC(=O)c3c[nH]c4cnccc34)CC2)cc1C(F)(F)F` [4-64], for which the IC50 was less than 100 nM.

As for `CNC(=O)c1ccc(C(=O)N[C@H]2CC[C@@H](Nc3ccc(C#N)c(C(F)(F)F)c3)CC2)cc1` [4-65], the IC50 is less than 100 nM.

With `CNc1cc(C(=O)N[C@H]2CC[C@@H](Nc3ccc(C#N)c(C(F)(F)F)c3)CC2)ccn1` [4-66], the IC50 is less than 100 nM.

As for `Cc1cc(C(=O)N[C@H]2CC[C@@H](Nc3cc(C)c(C#N)c(C(F)(F)F)c3)CC2)cc(C)n1` [5-1], the IC50 was less than 100 nM.

Turning to `Cc1cc(N[C@H]2CC[C@@H](NC(=O)c3ccnc(NC(C)C)c3)CC2)cc(C(F)(F)F)c1C#N` [5-2], the IC50 is less than 100 nM.

Turning to `CNc1ccc(C(=O)N[C@H]2CC[C@@H](Nc3cc(C)c(C#N)c(C(F)(F)F)c3)CC2)cc1` [5-3], the IC50 was less than 100 nM.

Regarding `CNc1cc(C(=O)N[C@H]2CC[C@@H](Nc3cc(C)c(C#N)c(C(F)(F)F)c3)CC2)ccn1` [5-4], the IC50 is less than 100 nM.

As for `Cc1cc(N[C@H]2CC[C@@H](NC(=O)c3cnn(CC(F)(F)F)c3)CC2)cc(C(F)(F)F)c1C#N` [5-5], the IC50 is less than 100 nM.

`CCn1nccc1C(=O)N[C@H]1CC[C@@H](Nc2cc(C)c(C#N)c(C(F)(F)F)c2)CC1` [5-6]: the IC50 is less than 100 nM.

`Cc1cc(N[C@H]2CC[C@@H](NC(=O)c3ccc(N(C)CC(F)F)cc3)CC2)cc(C(F)(F)F)c1C#N` [5-7]: the IC50 is less than 100 nM.

Turning to `Cc1cc(N[C@H]2CC[C@@H](NC(=O)c3ccc(NCC(F)F)cc3)CC2)cc(C(F)(F)F)c1C#N` [5-8], the IC50 is less than 100 nM.

`Cc1cc(N[C@H]2CC[C@@H](NC(=O)c3ccc4cncn4c3)CC2)cc(C(F)(F)F)c1C#N` [5-9]: the IC50 was less than 100 nM.

Take `Cc1cc(N[C@H]2CC[C@@H](NC(=O)c3cn(CC(F)F)nc3C)CC2)cc(C(F)(F)F)c1C#N` [5-10]: the IC50 is less than 100 nM.

Regarding `O=C(N[C@@H]1CCC[C@H](Nc2cc(C(F)(F)F)nc(C(F)(F)F)c2)C1)c1ccccc1` [Example 2, N-((1R,3S)-3-((2,6-bis(trifluoromethyl)pyridin-4-yl)amino)cyclohexyl)benzamide], the IC50 was more than 2500 nM.

Take `COc1ccc(C(=O)NC2CCC(Nc3ccc(C#N)c(C(F)(F)F)c3)CC2)cc1` (centres unmarked) [Example 4, N-[4-[4-cyano-3-(trifluoromethyl)anilino]cyclohexyl]-4-methoxy-benzamide]: the IC50 is 100 to 500 nM.

In the case of `O=C(N[C@H]1CC[C@@H](Nc2cc(C(F)(F)F)cc(C(F)(F)F)c2)CC1)c1ccc(F)cc1` [Example 6, N-((1S,4S)-4-((3,5-bis(trifluoromethyl)phenyl)amino)cyclohexyl)-4-fluorobenzamide], the IC50 lay within 1000 to 2500 nM.
